Data on 2 compounds can be found in patent US10059676B2, “Process for preparing a novel crystalline form of iodosulfuron-methyl-sodium and use of the same” (ROTAM AGROCHEM INTERNATIONAL COMPANY LIMITED, priority 2015, dated 2018).

Each structure is given as a SMILES string.

This data set is described as follows: Stability test: accelerated storage of formulations, relative percentage of hydrolysis (RPH) by HPLC (CIPAC MT 46.3). Type of data set: physicochemical. Conditions: for stability (hydrolysis), in words: general statement, in water, on storage, in formulations; for RPH % (relative percentage of hydrolysis): stored at 54° C. for 1 week. The method, then:
The stability of the iodosulfuron-methyl-sodium in these compositions was determined by aging samples in heated ovens having the same atmosphere therein, and then comparing the iodosulfuron-methyl-sodium content before and after the aging to determine relative percentage of hydrolysis (RPH). RPH was calculated by the following equation: […]
Iodosulfuron-methyl-sodium content was determined by assaying the compositions with high-pressure liquid chromatography (HPLC) using reverse phase columns and eluants.
Samples prepared in Examples 4, 5 and 6 were stored at 54° C. for 1 week. The procedures are followed according to CIPAC MT 46.3. The concentration of iodosulfuron-methyl-sodium was measured at the end of each storage time by HPLC.

The mark [1] stands for this setting: oil based suspension concentrate (OD) of Example 4, 40 wt% iodosulfuron-methyl-sodium.
[2] abbreviates: soluble granules (SG) of Example 5, 25 wt% iodosulfuron-methyl-sodium.
The mark [3] stands for this setting: water dispersible granules (WG) of Example 6, 25 wt% iodosulfuron-methyl-sodium.

For the compound `COC(=O)c1ccc(I)cc1S(=O)(=O)NC(=O)[N-]c1nc(C)nc(OC)n1.[Na+]` [Amorphous iodosulfuron-methyl-sodium, sodium salt of methyl 4-iodo-2-[[[[(4-methoxy-6-methyl-1,3,5-triazin-2-yl)amino]carbonyl]amino]sulfonyl]benzoate], the “stability (hydrolysis), in words” value (listed as iodosulfuron-methyl-sodium in the amorphous state) was “highly unstable”. Also, the “RPH % (relative percentage of hydrolysis)” value by setting is: under setting [1], 49%; under setting [2], 42%; under setting [3], 40%.

On to `COC(=O)c1ccc(I)cc1S(=O)(=O)NC(=O)[N-]c1nc(C)nc(OC)n1.[Na+]` [Iodosulfuron-methyl-sodium, crystalline modification I] [sodium salt of methyl 4-iodo-2-[[[[(4-methoxy-6-methyl-1,3,5-triazin-2-yl)amino]carbonyl]amino]sulfonyl]benzoate], for which, where the note is “listed as crystalline modification I of iodosulfuron-methyl-sodium”, the “stability (hydrolysis), in words” value is listed as “significant increase in its stability”. Further, the “RPH % (relative percentage of hydrolysis)” value reads like this: under setting [1], 0%; under setting [2], 0%; under setting [3], 0%.
